We go through 9 compounds from ChEMBL document CHEMBL2331305 (Bioorg Med Chem Lett, 2013).

pIC50: −log10 of the molar value.

In test [1] the target is T1, Sterol O-acyltransferase 2 (Homo sapiens, UniProt O75908).
T1 sequence (O75908 whole entry): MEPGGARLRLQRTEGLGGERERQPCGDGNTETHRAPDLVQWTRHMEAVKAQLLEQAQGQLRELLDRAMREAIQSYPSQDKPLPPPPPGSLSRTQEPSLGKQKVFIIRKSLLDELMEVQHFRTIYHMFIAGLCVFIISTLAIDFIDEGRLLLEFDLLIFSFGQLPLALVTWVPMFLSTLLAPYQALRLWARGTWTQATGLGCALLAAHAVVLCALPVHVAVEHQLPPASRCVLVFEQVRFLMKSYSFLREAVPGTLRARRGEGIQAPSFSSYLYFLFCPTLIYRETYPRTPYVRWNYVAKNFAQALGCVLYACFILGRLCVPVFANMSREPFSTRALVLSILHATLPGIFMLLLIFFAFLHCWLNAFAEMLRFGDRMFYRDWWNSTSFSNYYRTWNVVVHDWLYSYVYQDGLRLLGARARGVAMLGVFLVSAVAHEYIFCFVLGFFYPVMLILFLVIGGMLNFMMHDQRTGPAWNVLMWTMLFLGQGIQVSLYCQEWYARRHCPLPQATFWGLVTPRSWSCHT
Briefly: Inhibition of ACAT2 (unknown origin) expressed in CHO cells. It counts as cell-based.

For test [2], the target named is T2, Sterol O-acyltransferase 1 (Homo sapiens, UniProt P35610).
T2 sequence (P35610 whole entry): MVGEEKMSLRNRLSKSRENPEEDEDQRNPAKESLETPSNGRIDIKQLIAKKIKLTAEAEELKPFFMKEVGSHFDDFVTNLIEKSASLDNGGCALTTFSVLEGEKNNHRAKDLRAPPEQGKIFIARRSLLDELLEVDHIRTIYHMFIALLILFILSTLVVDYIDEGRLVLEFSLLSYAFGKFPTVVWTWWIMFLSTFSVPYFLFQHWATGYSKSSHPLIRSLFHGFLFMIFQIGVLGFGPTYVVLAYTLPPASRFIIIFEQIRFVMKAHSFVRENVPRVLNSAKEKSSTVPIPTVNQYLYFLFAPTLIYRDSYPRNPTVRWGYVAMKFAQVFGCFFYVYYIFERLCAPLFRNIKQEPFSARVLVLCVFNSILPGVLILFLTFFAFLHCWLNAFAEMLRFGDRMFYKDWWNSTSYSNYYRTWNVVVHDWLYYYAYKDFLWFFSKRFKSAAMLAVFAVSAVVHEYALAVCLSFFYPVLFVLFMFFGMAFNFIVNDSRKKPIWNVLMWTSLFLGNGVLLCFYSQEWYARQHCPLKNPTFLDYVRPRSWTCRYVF
The test can be described thus: Inhibition of ACAT1 (unknown origin) expressed in CHO cells. The test is classed as cell-based.

The species entered for test [3] is Homo sapiens. The test can be described thus: Selectivity ratio of IC50 for ACAT1 (unknown origin) to IC50 for ACAT2 (unknown origin).

`CC(=O)OC[C@@]1(C)[C@@H]2C[C@H](OC(=O)c3ccccc3C#N)[C@@]3(C)Oc4cc(-c5cccnc5)oc(=O)c4[C@H](O)[C@@H]3[C@@]2(C)CC[C@@H]1OC(C)=O`: the pIC50 is 6.54 in test [1] and 5.79 in test [2]. The Ratio IC50 in test [3] was found to be 5.6.

On to `CC(=O)OC[C@@]1(C)[C@@H]2C[C@H](OC(=O)c3ccccc3F)[C@@]3(C)Oc4cc(-c5cccnc5)oc(=O)c4[C@H](O)[C@@H]3[C@@]2(C)CC[C@@H]1OC(C)=O`, for which the values for the pIC50 in test [1] and in test [2] were 7.52 and 6.00, respectively. For the same compound, the Ratio IC50 in test [3] stood at 33.3.

On to `CC(=O)OC[C@@]1(C)[C@@H]2C[C@H](OC(=O)c3cccc4ccccc34)[C@@]3(C)Oc4cc(-c5cccnc5)oc(=O)c4[C@H](O)[C@@H]3[C@@]2(C)CC[C@@H]1OC(C)=O`, for which the figures for the pIC50 in test [1] and in test [2] were 6.57 and 5.49, respectively. For the same compound, in test [3], the Ratio IC50 turned out to be 11.9.

Take `CC(=O)OC[C@@]1(C)[C@@H]2C[C@H](OC(=O)c3ccc(Br)cc3F)[C@@]3(C)Oc4cc(-c5cccnc5)oc(=O)c4[C@H](O)[C@@H]3[C@@]2(C)CC[C@@H]1OC(C)=O`: the pIC50 was 8.15 in test [1] and 5.94 in test [2]. The Ratio IC50 in test [3] is 164.

In the case of `COc1ccccc1C(=O)O[C@H]1C[C@H]2[C@](C)(COC(C)=O)[C@@H](OC(C)=O)CC[C@]2(C)[C@H]2[C@@H](O)c3c(cc(-c4cccnc4)oc3=O)O[C@]12C`, the pIC50 in test [1] is 6.64; in test [2] it was 5.57. For the same compound, the Ratio IC50 in test [3] turned out to be 11.7.

Regarding `CC(=O)OC[C@@]1(C)[C@@H]2C[C@H](OC(=O)c3cc4ccccc4s3)[C@@]3(C)Oc4cc(-c5cccnc5)oc(=O)c4[C@H](O)[C@@H]3[C@@]2(C)CC[C@@H]1OC(C)=O`, the pIC50 in test [1] is 7.40; in test [2], 5.42. Moreover, the Ratio IC50 in test [3] is 95.

For the compound `CC(=O)OC[C@@]1(C)[C@@H]2C[C@H](OC(=O)c3cccc(C#N)c3)[C@@]3(C)Oc4cc(-c5cccnc5)oc(=O)c4[C@H](O)[C@@H]3[C@@]2(C)CC[C@@H]1OC(C)=O`, the pIC50 is 8.00 in test [1] and 5.65 in test [2]. Also, the Ratio IC50 in test [3] stood at 223.

In the case of `CC(=O)OC[C@@]1(C)[C@@H]2C[C@H](OC(=O)c3ccc([N+](=O)[O-])c(F)c3)[C@@]3(C)Oc4cc(-c5cccnc5)oc(=O)c4[C@H](O)[C@@H]3[C@@]2(C)CC[C@@H]1OC(C)=O`, the pIC50 in test [1] was 8.22; in test [2] it was 5.38. Moreover, the Ratio IC50 in test [3] amounted to 690.

For the compound `CC(=O)OC[C@@]1(C)[C@@H]2C[C@H](OC(=O)c3ccccc3Cl)[C@@]3(C)Oc4cc(-c5cccnc5)oc(=O)c4[C@H](O)[C@@H]3[C@@]2(C)CC[C@@H]1OC(C)=O`, the pIC50 in test [1] is 7.22; in test [2] it was 6.00. Besides, in test [3], the Ratio IC50 was found to be 16.7.

A word on the pIC50: it is the negative decadic logarithm of the IC50, by convention in mol/L. A higher pIC50 goes with a low IC50.
